In experiment [1] the target is T1, cytochrome c oxidase (CcO, complex IV), purified from bovine heart; COX4-1 the most abundant COX4 isoform (Bos taurus, UniProt P00396+P00423).
T1 construct: gene COX4I1; purified CcO from bovine heart (Sigma-Aldrich C5499), whole multi-subunit complex; with COX1 and the other CcO subunits
Nature of the experiment: inhibition of purified CcO activity, dose-response. Type of experiment: biochemical.

In experiment [2] the target is T2, cytochrome c oxidase (CcO, complex IV) bearing the COX4-1 regulatory subunit (Homo sapiens, UniProt P00395+P13073).
T2 construct: gene COX4I1; CcO in mitochondrial extracts of UTMZ, U251-TgCOX4-1 (FLAG-tagged COX4-1) and GSC (J × 12, J × 39) cells; with COX1 and the other CcO subunits
Nature of the experiment: CcO activity and Michaelis-Menten kinetics in mitochondrial extracts. Type of experiment: biochemical.

T2 sequence (P00414 whole entry): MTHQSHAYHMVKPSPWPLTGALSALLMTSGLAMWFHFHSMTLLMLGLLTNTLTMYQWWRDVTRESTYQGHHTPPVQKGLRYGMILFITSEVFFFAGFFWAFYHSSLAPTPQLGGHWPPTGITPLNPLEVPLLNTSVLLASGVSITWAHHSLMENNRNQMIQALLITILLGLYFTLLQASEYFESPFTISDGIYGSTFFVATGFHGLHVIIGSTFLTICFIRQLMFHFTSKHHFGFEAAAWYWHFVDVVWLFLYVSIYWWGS
T2 sequence (P00403 whole entry, further chain): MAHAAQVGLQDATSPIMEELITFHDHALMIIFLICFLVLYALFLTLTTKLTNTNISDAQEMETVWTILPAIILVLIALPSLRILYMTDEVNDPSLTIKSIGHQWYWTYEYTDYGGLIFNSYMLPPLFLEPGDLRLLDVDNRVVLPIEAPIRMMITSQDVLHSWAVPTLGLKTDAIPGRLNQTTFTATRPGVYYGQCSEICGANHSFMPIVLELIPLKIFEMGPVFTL
T2 sequence (P13073 23-169): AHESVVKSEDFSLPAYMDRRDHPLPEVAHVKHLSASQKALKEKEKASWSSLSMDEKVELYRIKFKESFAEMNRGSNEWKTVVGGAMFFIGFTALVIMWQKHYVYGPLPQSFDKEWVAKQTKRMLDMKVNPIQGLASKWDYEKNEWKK

Regarding `CN(C)CCCN1c2ccccc2Sc2ccc(Cl)cc21` [CPZ, Chlorpromazine], the figures for the IC50 in experiment [1] and in experiment [2] were 25.8 ± 3.75 µM and roughly 2000 nM, respectively.

Values taken from publication PMC5514931, “Repositioning chlorpromazine for treating chemoresistant glioma through the inhibition of cytochrome c oxidase bearing the COX4-1 regulatory subunit” (Oncotarget, 2017).
